Results: US20220105157A1, “Compositions and Methods for Promoting Angiogenesis in the Eye” (The Regents of the University of California, priority 2019, published 2022)

What was measured:
[1] = test system: phosphorylation of STAT3, ERK and AKT in BCE cells; assay: Western blotting of LIF signaling in BCE cells; assay type: cell-based, bovine; details: LIF treatment for 15 minutes
Description: BCE and BAE cells were cultured in growth medium overnight. Growth medium was removed and then cells were washed twice with PBS. Recombinant human LIF was added to cells for 15 minutes, following 3-hour incubation in the following medium: DMEM-low glucose supplemented with 10% BCS, 2 mM glutamine and antibiotics for BCE cells, and DMEM-low glucose supplemented with 1% BCS and antibiotics for BAE cells. […] Cells were then lysed with RIPA lysis buffer (Life Technologies, CAT #89901) plus protease and phosphatase inhibitor cocktail (ThermoFisher Scientific CAT #78440). Protein concentrations in cell lysates were measured with the BCA assay (ThermoFisher Scientific CAT #23227). Equal amount of proteins were subjected to electrophoresis in NuPAGE 4-12% Bis-Tris gels (ThermoFisher Scientific, CAT #NW04125BOX) and then transferred onto PVDF membranes. Membranes were blocked with 5% non-fat milk in TBST at room temperature for 1 hour, incubated with primary antibodies indicated below in TBST containing 0.5% non-fat milk at 4° C. overnight then with secondary HRP-conjugated antibodies (1:2000, GE Healthcare) at room temperature for 1 h. Signals were developed with SuperSignal™ West Pico PLUS Chemiluminescent Substrate (ThermoFisher Scientific). Primary antibodies used: anti-phospho-STAT3 (Cell Signaling, CAT #9131, 1:3000), anti-STAT3 (Cell Signaling, CAT #4904, 1:3000), anti-phospho-ERK (Cell Signaling, CAT #4376, 1:5000), anti-ERK (Cell Signaling, CAT #4695, 1:5000), anti-phospho-AKT Ser473 (Cell Signaling, CAT #4060, 1:2000), anti-AKT (Cell Signaling, CAT #4691, 1:2000) and HRP-conjugated anti-beta-actin (Sigma, CAT #AC-15, 1; 10000).

[2] = test system: choroid capillaries of NaIO3-treated mice; assay: Sodium iodate (NaIO3) model, choroid capillary recovery; assay type: in vivo, mouse; details: NaIO3 20 mg/kg i.v.; intravitreal LIF 50 ng, CT-1 different doses, OSM 10 ng; OCT-A
Description: Eight-week-old C57BL/6J mice were anesthetized with ketamine/xylazine cocktail. Sterilized NaIO3 was administered as a single intravenous injection (20 mg/kg body weight) (28) (29). Control mice were injected with PBS. PBS, LIF (50 ng), CT-1 (different doses) or OSM (10 ng) was injected intravitreally in five-mice groups. Five, seven and nine days after injection, choroid capillaries were monitored by OCT-A system. 9 days after injection, mice were killed and eyes were harvested for H&E and immunofluorescent staining. Avascular area in choroid capillaries was analyzed using ImageJ.

guinea pig skin = assay: Vessel permeability in guinea pig skin (Evans blue); assay type: in vivo; details: intradermal 1, 5, 25, 100, 200 ng per injection site
Description: In FIG. 5A, Hairless male guinea pigs (Crl: HA-Hrhr/IAF, 450-500 g, Charles River Laboratories) were anesthetized by intraperitoneal (i.p.) administration of xylazine (5 mg/kg) and ketamine (75 mg/kg). The animals then received an intravenous injection (penile vein) of 1 ml of 1% Evans blue dye. After 15 min, intradermal injections (0.05 ml/per site) of different doses (1, 5, 25, 100, 200 ng per injection site) of rhLIF in PBS were administrated into the area of trunk posterior to the shoulder. 0.05 ml of PBS and 25 ng of VEGF in 0.05 ml of PBS were injected as negative and positive controls. 30 min after the intradermal injections, animals were euthanized by i.p. injection of pentobarbital (200 mg/kg). Skin tissues were dissected from the connective tissues and photographed, n=2. In FIG. 5B, Vascular leakage is shown in mouse retina. LIF (10 ng) or VEGF (100 ng) was injected in the vitreous cavity (0.1% BSA/PBS as control). TRITC-dextran was used to indicate the vascular leakage. Retinal vasculature was labeled by FITC-lectin, n=5.

BAE cells = assay: BrdU incorporation assay; assay type: cell-based, bovine; details: LIF 48 hours
Description: BAE cells were plated at the density of 2×10^4 cells/well with 1 ml of culture medium (DMEM-low glucose plus 10% BCS) in a 12-well plate with a 18-mm poly-D-lysine-treated coverslip in each well, incubating at 37° C. overnight. After removal of culture medium, cells were incubated in 0.5 ml of DMEM-low glucose plus 1% BCS. LIF (10 ng/ml) and vehicle control (0.1% BSA in PBS) were added to the cells. Upon LIF treatment for 48 hours, cells were subjected to BrdU incorporation by adding 2.5 μl of 2 mM BrdU in DMSO to each well to a final concentration 10 μM and incubating for 4 hours. Then, cells are subjected to BrdU immunofluorescence staining using an antibody against BrdU conjugated with Fluor alexa-488 (Biolegend, CAT #364106, 1:400). Briefly, BrdU labeling medium was removed from the culture plates and cells were fixed with 3.7% formaldehyde in PBS at room temperature for 15 minutes. Cell DNAs were denatured with 1N HCl on ice for 10 minutes and 2N HCl at room temperature for 10 minutes following cell permeabilization with 0.1% Triton X-100 in PBS (PBST). […] Four fields were randomly selected for each sample and the BrdU-positive nuclei as well as total nuclei (DAPI-positive) were counted manually; the percentages of BrdU-positive cells were determined by dividing the numbers of BrdU-positive nuclei with the numbers of total nuclei. […]

LIF: recombinant human leukemia inhibitory factor, a member of the IL-6 family of cytokines
AKT phosphorylation [1]: little effects
phosphorylation of ERK [1]: elicited phosphorylation
phosphorylation of STAT3 [1]: elicited phosphorylation
avascular areas in choroid compared to PBS group [2]: reduced avascular areas
vascular permeability in guinea pig skin (guinea pig skin): does not induce vascular permeability
BrdU incorporation compared to the vehicle control (BAE cells): significantly reduced
